# pIC50, pKi: −log10 of the molar value.
# Tests used:
# [1] = target: Human serotonin transporter (Homo sapiens, UniProt P31645); assay: Human serotonin transporter, blockade of 5-HT uptake; format: biochemical
# Rat 5-HT3 receptor = target: T1, Rat 5-HT3 receptor (Rattus norvegicus, UniProt P35563); assay: Rat 5-HT3 receptor functional assay (antagonism); format: biochemical
# T1 sequence (P35563 24-483): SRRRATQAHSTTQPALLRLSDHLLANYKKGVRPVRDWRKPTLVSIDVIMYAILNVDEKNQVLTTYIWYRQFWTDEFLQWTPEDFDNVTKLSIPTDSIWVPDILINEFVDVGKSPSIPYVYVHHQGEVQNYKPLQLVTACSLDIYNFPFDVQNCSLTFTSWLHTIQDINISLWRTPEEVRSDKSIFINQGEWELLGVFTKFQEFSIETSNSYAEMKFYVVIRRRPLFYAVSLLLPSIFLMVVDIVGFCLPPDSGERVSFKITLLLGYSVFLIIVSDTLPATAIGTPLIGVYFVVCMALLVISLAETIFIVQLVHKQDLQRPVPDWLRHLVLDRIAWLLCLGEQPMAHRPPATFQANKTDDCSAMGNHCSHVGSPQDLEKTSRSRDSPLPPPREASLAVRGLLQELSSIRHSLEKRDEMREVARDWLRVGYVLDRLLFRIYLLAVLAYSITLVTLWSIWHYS
# Human 5-HT3A receptor = target: T2, Human 5-HT3A receptor (Homo sapiens, UniProt P46098); assay: Human 5-HT3A receptor functional assay; format: biochemical; settings: read-out: IC50 (antagonism in functional assay)
# T2 sequence (P46098 24-478): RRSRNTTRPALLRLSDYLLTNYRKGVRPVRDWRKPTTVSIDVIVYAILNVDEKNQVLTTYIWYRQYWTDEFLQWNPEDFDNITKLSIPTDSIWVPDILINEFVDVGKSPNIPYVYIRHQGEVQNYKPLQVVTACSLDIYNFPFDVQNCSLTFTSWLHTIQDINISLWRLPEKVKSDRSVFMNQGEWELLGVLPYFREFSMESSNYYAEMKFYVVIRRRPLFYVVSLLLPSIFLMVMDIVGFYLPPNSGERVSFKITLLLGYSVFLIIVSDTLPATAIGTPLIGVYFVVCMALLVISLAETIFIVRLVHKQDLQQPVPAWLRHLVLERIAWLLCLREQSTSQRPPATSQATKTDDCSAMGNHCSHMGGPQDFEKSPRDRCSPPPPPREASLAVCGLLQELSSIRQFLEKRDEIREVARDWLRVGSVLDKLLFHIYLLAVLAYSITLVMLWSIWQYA
# human 5HT3 receptor = target: T3, human 5HT3 receptor (Homo sapiens, UniProt P46098); assay: Human 5HT3 receptor in vitro binding assay
# T3 sequence (P46098 24-478): T2 sequence (P46098 24-478)
# mice = assay: Mouse intradermal formalin test; format: in vivo; settings: formalin 4.5% into hind paw
# Protocol: In this model, mice receive an injection of formalin (4.5%, 20 μl) into the left hind paw. The irritation caused by the formalin injection elicits a characteristic biphasic behavioural response, as quantified by the amount of time spent licking the injured paw. The first phase (˜0-10 minutes) represents direct chemical irritation and nociception, whereas the second (˜20-30 minutes) is thought to represent pain of neuropathic origin. The two phases are separated by a quiescent period in which behaviour returns to normal. The effectiveness of test compounds to reduce the painful stimuli is assessed by counting the amount of time spent licking the injured paw in the two phases.
# patients [2] = assay: Clinical trial in patients, HAM-D sleep items 4, 5 and 6; format: in vivo, human; settings: 5 and 10 mg daily against placebo, 6 weeks, approximately 100 patients per arm, HBr salt, FIGS. 23-25
# Protocol: (§1) The HAM-D scale may be used to assess the severity of depression in patients by means of a 24 items questionnaire. Item 4, 5 and 6 of the scale relate to how the patients sleep, i.e. is it easy to fall asleep (insomnia Early), does the patient wake up during the night (Insomnia Middle), and does the patient wake up early in the morning (Insomnia Late). The compound was tested at 5 and 10 mg daily against placebo with approximately 100 patients per arm.
# patients [3] = assay: Clinical trial in patients, sexually related adverse effects reported; format: in vivo, human; settings: approximately 100 patients
# Protocol: as §1
# This notion was further supported by clinical trials conducted in patients. The above mentioned clinical trial in patients also captured sexual adverse effects reported by the patients.
# healthy subjects = assay: Clinical trials in healthy subjects, sexual dysfunction reported; format: in vivo, human; settings: of 114 healthy subjects exposed
# Sequence of Human serotonin transporter (P31645 whole entry): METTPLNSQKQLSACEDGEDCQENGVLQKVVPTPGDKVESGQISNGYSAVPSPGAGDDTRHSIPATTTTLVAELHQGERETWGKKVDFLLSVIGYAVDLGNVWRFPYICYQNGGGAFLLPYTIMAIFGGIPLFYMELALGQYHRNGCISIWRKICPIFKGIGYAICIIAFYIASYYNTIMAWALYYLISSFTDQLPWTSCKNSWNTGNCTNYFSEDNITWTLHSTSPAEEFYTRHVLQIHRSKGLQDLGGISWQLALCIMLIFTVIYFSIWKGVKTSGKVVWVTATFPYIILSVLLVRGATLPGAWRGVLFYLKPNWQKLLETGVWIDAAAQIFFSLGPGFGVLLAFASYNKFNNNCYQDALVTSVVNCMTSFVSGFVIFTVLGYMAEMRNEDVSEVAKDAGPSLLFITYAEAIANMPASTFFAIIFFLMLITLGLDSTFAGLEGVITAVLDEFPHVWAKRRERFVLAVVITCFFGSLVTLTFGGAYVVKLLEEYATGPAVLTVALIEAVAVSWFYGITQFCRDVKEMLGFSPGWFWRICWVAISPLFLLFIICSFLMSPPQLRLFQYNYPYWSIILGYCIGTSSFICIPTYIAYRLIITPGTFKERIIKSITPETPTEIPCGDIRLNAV
structure (smiles),measurement,setting,value
"Cc1ccc(Sc2ccccc2N2CCNCC2)c(C)c1 [compound I, 1-[2-(2,4-dimethylphenylsulfanyl)-phenyl]piperazine]",pIC50,[1],7.40
same,pIC50,Rat 5-HT3 receptor,9.70
same,pIC50,Human 5-HT3A receptor,~7.70
same,pKi,human 5HT3 receptor,8.35
same,"first phase scores (time spent licking the paw, 0-5 minutes)","mice; FIG. 18a, highest dose",significant reduction
same,"second phase pain scores (time spent licking the paw, 20-30 minutes)",mice; FIG. 18b,significant reduction
same,"sleep pattern, HAM-D items 4, 5 and 6 (Insomnia Early, Middle, Late)",patients [2],large and dose dependent improvement
same,number of patients reporting Anorgasmia,patients [3]; 5 mg daily,0
same,number of patients reporting Ejaculation delayed,patients [3]; 5 mg daily,0
same,number of patients reporting Erectile dysfunction,patients [3]; 5 mg daily,0
same,number of patients reporting Libido decreased,patients [3]; 5 mg daily,1
same,number of patients reporting Loss of libido,patients [3]; 5 mg daily,1
same,number of patients reporting Orgasm abnormal,patients [3]; 5 mg daily,0
same,number of patients reporting Orgasmic sensation decreased,patients [3]; 5 mg daily,0
same,number of patients reporting Anorgasmia,patients [3]; 10 mg daily,0
same,number of patients reporting Ejaculation delayed,patients [3]; 10 mg daily,0
same,number of patients reporting Erectile dysfunction,patients [3]; 10 mg daily,0
same,number of patients reporting Libido decreased,patients [3]; 10 mg daily,1
same,number of patients reporting Loss of libido,patients [3]; 10 mg daily,0
same,number of patients reporting Orgasm abnormal,patients [3]; 10 mg daily,0
same,number of patients reporting Orgasmic sensation decreased,patients [3]; 10 mg daily,0
same,number of subjects reporting sexual dysfunction,healthy subjects,one

# Reference: patent US8664225B2, “1-[2-(2,4-dimethylphenylsulfanyl)-phenyl] piperazine as a compound with combined serotonin reuptake, 5-HT3 and 5-HT1A activity for the treatment of pain or residual symptoms in depression relating to sleep and cognition” (H. Lundbeck A/S, priority 2007, dated 2014)
